The source of these data is patent US6838453B2, “Antagonist derivatives of the vitronectin receptor” (Aventis Pharma S.A., priority 2000, dated 2005).

pIC50: −log10 of the molar value. Counter-ions that a name gives are not always drawn.

The target in the assay is human αvβ3 receptor (Homo sapiens, UniProt P05106+P06756). The assay can be described thus: Kistrin/Vitronectin Receptor (αvβ3) ELISA test. The format is binding. Conditions: Kistrin-coated plates, co-incubated 3 hours at ambient temperature, 4B12-HRP antibody, OD 450 nm, read-out: K/VnR IC50. The protocol: Kistrin/Vitronectin Receptor (αvβ3) ELISA Test
Sequence of human αvβ3 receptor (P06756 31-889 limits assumed): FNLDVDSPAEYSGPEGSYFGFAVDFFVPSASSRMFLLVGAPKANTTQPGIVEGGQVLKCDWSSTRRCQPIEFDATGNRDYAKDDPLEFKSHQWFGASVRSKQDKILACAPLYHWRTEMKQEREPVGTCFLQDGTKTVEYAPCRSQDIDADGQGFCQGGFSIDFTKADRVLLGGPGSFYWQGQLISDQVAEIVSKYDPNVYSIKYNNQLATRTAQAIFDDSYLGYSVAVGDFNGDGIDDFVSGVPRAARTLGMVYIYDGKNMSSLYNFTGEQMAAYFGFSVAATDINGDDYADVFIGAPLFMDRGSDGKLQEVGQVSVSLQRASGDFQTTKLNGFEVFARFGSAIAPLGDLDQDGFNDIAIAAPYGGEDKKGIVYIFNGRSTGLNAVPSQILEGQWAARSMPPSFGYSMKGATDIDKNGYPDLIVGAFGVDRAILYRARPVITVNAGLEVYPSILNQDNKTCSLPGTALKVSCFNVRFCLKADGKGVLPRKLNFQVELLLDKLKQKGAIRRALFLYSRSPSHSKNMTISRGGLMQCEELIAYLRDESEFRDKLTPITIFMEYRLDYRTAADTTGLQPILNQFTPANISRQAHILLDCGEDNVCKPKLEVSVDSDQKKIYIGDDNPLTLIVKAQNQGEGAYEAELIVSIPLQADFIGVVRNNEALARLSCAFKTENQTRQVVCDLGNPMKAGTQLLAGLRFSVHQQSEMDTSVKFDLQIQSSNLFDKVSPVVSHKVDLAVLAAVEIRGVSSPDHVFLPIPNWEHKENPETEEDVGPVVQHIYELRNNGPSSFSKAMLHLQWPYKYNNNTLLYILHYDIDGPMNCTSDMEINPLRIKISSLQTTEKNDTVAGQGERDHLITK
Sequence of human αvβ3 receptor (P06756 891-1048 limits assumed): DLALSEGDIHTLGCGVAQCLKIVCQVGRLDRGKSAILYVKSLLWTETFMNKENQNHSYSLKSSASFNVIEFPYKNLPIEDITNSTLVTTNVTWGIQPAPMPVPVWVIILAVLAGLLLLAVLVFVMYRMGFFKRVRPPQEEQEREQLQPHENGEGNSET
Sequence of human αvβ3 receptor (P05106 27-788): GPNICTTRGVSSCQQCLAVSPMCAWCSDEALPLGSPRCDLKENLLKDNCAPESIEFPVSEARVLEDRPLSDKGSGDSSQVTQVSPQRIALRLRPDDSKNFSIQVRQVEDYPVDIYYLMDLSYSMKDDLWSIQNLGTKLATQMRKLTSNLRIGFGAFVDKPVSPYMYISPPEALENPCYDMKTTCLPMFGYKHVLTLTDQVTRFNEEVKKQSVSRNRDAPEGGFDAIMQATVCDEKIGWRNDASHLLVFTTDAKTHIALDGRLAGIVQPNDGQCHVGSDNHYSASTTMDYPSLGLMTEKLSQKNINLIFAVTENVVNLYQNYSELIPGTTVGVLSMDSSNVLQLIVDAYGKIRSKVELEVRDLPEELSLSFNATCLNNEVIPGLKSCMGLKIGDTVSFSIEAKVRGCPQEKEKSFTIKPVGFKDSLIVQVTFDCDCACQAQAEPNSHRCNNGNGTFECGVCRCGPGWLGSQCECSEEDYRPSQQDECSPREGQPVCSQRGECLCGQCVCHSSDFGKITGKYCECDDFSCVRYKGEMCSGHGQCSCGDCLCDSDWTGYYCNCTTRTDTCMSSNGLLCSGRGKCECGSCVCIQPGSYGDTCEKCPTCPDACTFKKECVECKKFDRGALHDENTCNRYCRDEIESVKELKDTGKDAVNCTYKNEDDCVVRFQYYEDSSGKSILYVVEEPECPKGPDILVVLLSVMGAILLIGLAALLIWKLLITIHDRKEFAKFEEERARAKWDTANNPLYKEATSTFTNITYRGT
96-well MaxiSorp planes are coated overnight at […] with 100 μl of Kistrin at 1 μg/ml (dilution in a coating buffer: carbonate 0.05 M/NaOH pH 9.6). The next day, the wells are emptied and the ligands (kistrin) are then fixed (fixing buffers: PBS containing 0.5% BSA (pH=7.4)) for 1 hour at ambient temperature with gentle agitation at 125 rpm. The wells are washed six times (washing buffer: PBS containing 0.05% of Tween 20 (pH 7.7) then the following are added per well and in this order: • 40 μl of incubation buffer • 10 μl of the dilution of the product to be tested (the products are diluted in a 50:50 mixture DMSO/Water) • 50 μl of human αvβ3 receptor (cf Pytella et al. Methods Enzymol. (1987) 144 (Dilution in incubation buffer, to be adapted according to the receptor batch and according to the ligand). The ligand, the αvβ3 receptor and the products to be studied are co-incubated for 3 hours at ambient temperature with gentle agitation at 125 rpm.
The wells are again washed six times, then incubated for 2 hours at ambient temperature with gentle agitation at 125 rpm, in the presence of 100 μl of anti-receptor antibody conjugated to a peroxidase (The 4B12-HRP antibody is diluted in an incubation buffer (50 mM TRIS pH 7.4; 0.5% BSA; 0.05% Tween 20; 1 mM MnCl2; 50 μM CaCl2; 50 μM MgCl2; 100 mM NaCl) The dilution is adapted according to the receptor batch.
The wells are then washed six times before measuring the ligand-receptor bond carried out using a peroxidase developer kit (TBM Microwell Peroxidase Substrate System Kirkegaard; Cat. Ref. 50-76-00).
This kit contains a bottle A of substrate (3,3′,5,5′-tetramethylebenzidine at 0.4 g/l) and a bottle B (H2O2 at 0.02% in a Citrate/Citric acid buffer). Extemporaneously, a volume of A is mixed with a volume of B, then the reaction mixture is distributed at a rate of 100 μl/well.
The enzymatic reaction develops between 6 and 10 minutes for Kistrin/αvβ3 then its evolution is stopped by the addition of 100 μl of 1M phosphoric acid. The optical density is determined at 450 nm.
Expression of the Results
The following curve is plotted: the bond percentage as a function of the logarithm of each concentration of the tested product.
For each product, the IC50 is determined according to the following formula: IC50=(B0+Bmin)/2 • B0=Maximum bond in the absence of any product • Bmin =Minimum bond in the presence of the highest concentration of the product.
For orientation: An ELISA detects its analyte on a solid surface through an enzyme-linked reagent.
Regarding `O=C(O)[C@H](Cc1ccc(OCCCc2ccc3c(n2)NCCC3)cc1)Nc1nnnn1Cc1ccccc1` [Example 1, N-[1-(phenylmethyl)-1H-tetrazol-5-yl]-O-[3-(5,6,7,8-tetrahydro-1,8-naphthyridin-2-yl)propyl]-L-tyrosine], the pIC50 is 8.05. For `O=C(O)[C@H](Cc1ccc(OCCCc2ccc3c(n2)NCCC3)cc1)Nc1nc2ccccc2s1` [Example 2, N-(2-benzothiazolyl)-O-[3-(5,6,7,8-tetrahydro-1,8-naphthyridin-2-yl)propyl]-L-tyrosine], the pIC50 was 7.15.

As to `O=C(O)[C@H](Cc1ccc(OCCCc2ccc3c(n2)NCCC3)cc1)Nc1nc2ccccc2o1` [Example 3, N-(2-benzoxazolyl)-O-[3-(5,6,7,8-tetrahydro-1,8-naphthyridin-2-yl)propyl]-L-tyrosine], the pIC50 is 7.30. The same measure for `COc1ccc2[nH]c(N[C@@H](Cc3ccc(OCCCC(=O)NC4=NCCCN4)cc3)C(=O)O)nc2c1` [Example 4a]: 7.72; for `Cc1ccc2[nH]c(N[C@@H](Cc3ccc(OCCCC(=O)NC4=NCCCN4)cc3)C(=O)O)nc2c1` [Example 4b, N-[5-methyl-1H-benzimidazol-2-yl]-O-[4-oxo-4-[(1,4,5,6-tetrahydro-2-pyrimidinyl)amino]butyl]-L-tyrosine]: 7.85.

Regarding `O=C(CCCOc1ccc(C[C@H](Nc2nnnn2Cc2ccccc2)C(=O)O)cc1)NC1=NCCCN1` [Example 5, O-[4-oxo-4-[(1,4,5,6-tetrahydro-2-pyrimidinyl)amino]butyl]-N-[1-(phenylmethyl)-1H-tetrazol-5-yl]-L-tyrosine], the pIC50 is 7.82. The figure for `O=C(CCCOc1ccc(C[C@H](Nc2nc3ccccc3o2)C(=O)O)cc1)NC1=NCCCN1` [Example 6, N-(2-benzoxazolyl)-O-[4-oxo-4-[(1,4,5,6-tetrahydro-2-pyrimidinyl)amino]butyl]-L-tyrosine] is 8.30; for `O=C(CCCOc1ccc(C[C@H](Nc2nc3ccccc3s2)C(=O)O)cc1)NC1=NCCCN1` [Example 7, N-(2-benzothiazolyl)-O-[4-oxo-4-[(1,4,5,6-tetrahydro-2-pyrimidinyl)amino]butyl]-L-tyrosine] it is 8.22; for `O=C(CCCOc1ccc(C[C@H](Nc2nc3ccc(Br)cc3s2)C(=O)O)cc1)NC1=NCCCN1` [Example 8, N-(6-bromo-2-benzothiazolyl)-O-[4-oxo-4-[(1,4,5,6-tetrahydro-2-pyrimidinyl)amino]butyl]-L-tyrosine] it is 8.10.

In the case of `O=C(CCCOc1ccc(C[C@H](Nc2nc3cc(Br)cc(F)c3o2)C(=O)O)cc1)NC1=NCCCN1` [Example 9, N-[5-bromo-7-fluoro-2-benzoxazolyl)-O-[4-oxo-4-[(1,4,5,6-tetrahydro-2-pyrimidinyl)amino]butyl]-L-tyrosine], the pIC50 is 8.05. The same measure for `O=C(CCc1ccc(C(=O)NC[C@H](Nc2nc3cc(Br)ccc3o2)C(=O)O)cc1)NC1=NCCCN1` [Example 10, N-(5-bromo-2-benzoxazolyl)-3-[[4-[3-oxo-3-[(1,4,5,6-tetrahydro-2-pyrimidinyl)amino]propyl]benzoyl]amino]-L-alanine]: 8.22. The same measure for `O=C(CCc1ccc(C(=O)NC[C@H](Nc2nc3ccc(Br)cc3s2)C(=O)O)cc1)NC1=NCCCN1` [Example 11, N-(6-bromo-2-benzothiazolyl)-3-[[4-[3-oxo-3-[(1,4,5,6-tetrahydro-2-pyrimidinyl)amino]propyl]benzoyl]amino]-L-alanine]: 8.15; for `O=C(CCCOc1ccc(C[C@H](Nc2nc3cccc(F)c3o2)C(=O)O)cc1)NC1=NCCCN1` [Example 12, N-(7-fluoro-2-benzoxazolyl)-O-[4-oxo-4-[(1,4,5,6-tetrahydro-2-pyrimidinyl)amino]butyl]-L-tyrosine]: 8.05; for `O=C(CCCOc1ccc(C[C@H](Nc2nc3ccc(F)cc3o2)C(=O)O)cc1)NC1=NCCCN1` [Example 13, N-(6-fluoro-2-benzoxazolyl)-O-[4-oxo-4-[(1,4,5,6-tetrahydro-2-pyrimidinyl)amino]butyl]-L-tyrosine]: 8.15. The same measure for `O=C(CCCOc1ccc(C[C@H](Nc2nc3cc(F)ccc3o2)C(=O)O)cc1)NC1=NCCCN1` [Example 14, N-(5-fluoro-2-benzoxazolyl)-O-[4-oxo-4-[(1,4,5,6-tetrahydro-2-pyrimidinyl)amino]butyl]-L-tyrosine trifluoroacetate]: 8.15; for `O=C(CCCOc1ccc(C[C@H](Nc2nc3cccc(Cl)c3o2)C(=O)O)cc1)NC1=NCCCN1` [Example 15, N-(7-chloro-2-benzoxazolyl)-O-[4-oxo-4-[(1,4,5,6-tetrahydro-2-pyrimidinyl)amino]butyl]-L-tyrosine trifluoroacetate]: 8.30; for `O=C(CCCOc1ccc(C[C@H](Nc2nc3ccc(Cl)cc3o2)C(=O)O)cc1)NC1=NCCCN1` [Example 16, N-(6-chloro-2-benzoxazolyl)-O-[4-oxo-4-[(1,4,5,6-tetrahydro-2-pyrimidinyl)amino]butyl]-L-tyrosine]: 8.05.

On to `O=C(CCCOc1ccc(C[C@H](Nc2nc3cc(Cl)ccc3o2)C(=O)O)cc1)NC1=NCCCN1` [Example 17, N-(5-chloro-2-benzoxazolyl)-O-[4-oxo-4-[(1,4,5,6-tetrahydro-2-pyrimidinyl)amino]butyl]-L-tyrosine], for which the pIC50 was 8.05. The figure for `O=C(CCCOc1ccc(C[C@H](Nc2nc3cc(Br)ccc3o2)C(=O)O)cc1)NC1=NCCCN1` [Example 18, N-(5-bromo-2-benzoxazolyl)-O-[4-oxo-4-[(1,4,5,6-tetrahydro-2-pyrimidinyl)amino]butyl]-L-tyrosine trifluoroacetate] is 7.96; for `O=C(CCCOc1ccc(C[C@H](Nc2nc3cc4ccccc4cc3o2)C(=O)O)cc1)NC1=NCCCN1` [Example 19, N-(naphth[2,3-d]oxazol-2-yl)-O-[4-oxo-4-[(1,4,5,6-tetrahydro-2-pyrimidinyl)amino]butyl]-L-tyrosine] it is 8.22; for `O=C(CCCOc1ccc(C[C@H](Nc2nc3c(ccc4ccccc43)o2)C(=O)O)cc1)NC1=NCCCN1` [Example 20, N-(naphth[1,2-d]oxazol-2-yl)-O-[4-oxo-4-[(1,4,5,6-tetrahydro-2-pyrimidinyl)amino]butyl]-L-tyrosine] it is 7.46. The figure for `O=C(CCCOc1ccc(C[C@H](Nc2nc3cc(-c4ccccc4)ccc3o2)C(=O)O)cc1)NC1=NCCCN1` [Example 21, O-[4-oxo-4-[(1,4,5,6-tetrahydro-2-pyrimidinyl)amino]butyl]-N-(5-phenyl-2-benzoxazolyl)-L-tyrosine] is 8.22. The figure for `O=C(CCCOc1ccc(C[C@H](Nc2nc3ccc([N+](=O)[O-])cc3o2)C(=O)O)cc1)NC1=NCCCN1` [Example 22, N-(6-nitro-2-benzoxazolyl)-O-[4-oxo-4-[(1,4,5,6-tetrahydro-2-pyrimidinyl)amino]butyl]-L-tyrosine] is 8.10; for `O=C(CCCOc1ccc(C[C@H](Nc2nc3cc(C(F)(F)F)ccc3o2)C(=O)O)cc1)NC1=NCCCN1` [Example 23, O-[4-oxo-4-[(1,4,5,6-tetrahydro-2-pyrimidinyl)amino]butyl]-N-[5-(trifluoromethyl)-2-benzoxazolyl)-L-tyrosine] it is 8.00. As for `O=C(CCCOc1ccc(C[C@H](Nc2nc3ccc(F)c(F)c3o2)C(=O)O)cc1)NC1=NCCCN1` [Example 27, N-(6,7-difluoro-2-benzoxazolyl)-O-[4-oxo-4-[(1,4,5,6-tetrahydro-2-pyrimidinyl)amino]butyl]-L-tyrosine], the pIC50 was 7.92. The same measure for `O=C(CCCOc1ccc(C[C@H](Nc2nc3cc(Cl)cc(Cl)c3o2)C(=O)O)cc1)NC1=NCCCN1` [Example 28, N-(5,7-dichloro-2-benzoxazolyl)-O-[4-oxo-4-[(1,4,5,6-tetrahydro-2-pyrimidinyl)amino]butyl]-L-tyrosine]: 8.15; for `Cc1c(Cl)cc2nc(N[C@@H](Cc3ccc(OCCCC(=O)NC4=NCCCN4)cc3)C(=O)O)oc2c1Cl` [Example 29, N-(5,7-dichloro-6-methyl-2-benzoxazolyl)-O-[4-oxo-4-[(1,4,5,6-tetrahydro-2-pyrimidinyl)amino]butyl]-L-tyrosine]: 8.00.
